Publication PMC4532424, “The Novel Cyclophilin Inhibitor CPI-431-32 Concurrently Blocks HCV and HIV-1 Infections via a Similar Mechanism of Action” (PLoS ONE, 2015)
Read-outs that look alike come from different tables or passages of the source.

What was measured:
[1] = tested on: HIV-1 JR-CSF; assay: HIV-1/HCV co-culture co-infection, HIV-1 p24 ELISA; assay type: cell-based
Protocol: (§1) CD4+ T-lymphocytes and Huh7.5.1 cells uninfected or infected for 3 h as described above were mixed in a single flask and HIV-1 and HCV replication monitored over a period of 3 weeks as described above.
(§2) HIV-1 target cells—CD4+ T-lymphocytes—and HCV target cells—hepatoma cells—were placed in a single chamber (flask), exposed to both HIV-1 and HCV, and viral replication monitored over time by p24 capsid and core ELISAs, respectively.
(§3) CD4+ T-lymphocytes (A) and Huh7.5.1 cells (B) (0.5 x 10^6 cells) (triplicates) were exposed to HIV-1 JR-CSF and HCV JFH-1. Drugs (2 μM) were added 3 h pre-viral exposure (top panels) or 3 days post-viral exposure (bottom panels). Viral replications were monitored by HIV-1 p24 and HCV core ELISAs. C. CD4+ T-lymphocytes (0.5 x 10^6 cells) (triplicates) were exposed to HIV-1 JR-CSF. Drugs were initially added 3 days post-viral exposure (2 μM) and then daily (0.5 μM). Viral replications were monitored by HIV-1 p24 and HCV core ELISAs. […] D. Model for the HIV-1/HCV co-culture system.

[2] = tested on: HCV JFH-1; assay: HIV-1/HCV co-culture co-infection, HCV core ELISA; assay type: cell-based
Protocol: as §1, §2, §3

[3] = tested on: HCV JFH-1; assay: HCV mono-infection of Huh7.5.1 cells, core ELISA; assay type: cell-based; details: Fig 1B
[4] = tested on: HIV-1 JR-CSF; assay: HIV-1 mono-infection of CD4+ T-lymphocytes, p24 ELISA; assay type: cell-based; details: Fig 1A
Text: Hemoglobin determinations at every donation protect the donor from phlebotomy-induced anemia. The donor pool also provides investigators with a mix of gender and minority subjects, and recruitment is ongoing for underrepresented minorities. At the present time, the NBDS has 320 active normal blood donors enrolled. Use of the Normal Blood Donor Service is considered “human subjects” research and each investigator who wants to use the service must submit a protocol to the IRB for review and approval. Dr. Gallay has current IRB approval for the human blood obtained for research described in this manuscript. Protocol No: IRB-15-6552. Full name of the IRB is "Scripps IRB". […] Consent from blood donors was obtained verbally. The authors have no access to identifying donor information for these samples.

[5] = tested on: human T cells; details: cited from earlier work
[6] = drug treatments begun 3 h before virus addition
[7] = single dose added 3 days post-infection

Compound | Effect on HIV-1 replication (in words) [1, 6] | Effect on HIV-1 replication (in words) [1, 7] | Effect on HCV replication (in words) [2, 6] | Effect on HCV replication (in words) [3] | Effect on HIV-1 replication (in words) [4] | Cellular toxicity (in words) ([5]; general statement on other CypI, no reference given) | Cellular toxicity (in words) [5] | Effect on HCV replication (in words) [2, 7]
Cc1c(O)cccc1C(=O)N[C@@H](CSc1ccccc1)[C@H](O)CN1C[C@H]2CCCC[C@H]2C[C@H]1C(=O)NC(C)(C)C [Nelfinavir, nelfinavir] | totally prevented HIV-1 replication | completely eradicated | did not | had no effect | totally blocked replication | – | – | –
C/C=C/C[C@@H](C)[C@@H](O)[C@H]1C(=O)N[C@@H](CC)C(=O)N(C)CC(=O)N(C)[C@@H]([C@@H](C)CC)C(=O)N[C@@H](C(C)C)C(=O)N(C)[C@@H](CC(C)C)C(=O)N[C@@H](C)C(=O)N[C@H](C)C(=O)N(C)[C@@H](CC(C)C)C(=O)N(C)[C@@H](CC(C)C)C(=O)N(C)[C@@H](C(C)C)C(=O)N1C [NIM811] | – | – | – | – | – | lack of cellular toxicity | – | –
C/C=C/C[C@@H](C)[C@@H](O)[C@H]1C(=O)N[C@@H](CC)C(=O)N(C)[C@H](SCCN(C)C)C(=O)N(C)[C@@H](CC(C)(C)O)C(=O)N[C@@H](C(C)C)C(=O)N(C)[C@@H](CC(C)C)C(=O)N[C@@H](C)C(=O)N[C@H](C)C(=O)N(C)[C@@H](CC(C)C)C(=O)N(C)[C@@H](CC(C)C)C(=O)N(C)[C@@H](C(C)C)C(=O)N1C [SCY-635] | – | – | – | – | – | – | lack of cellular toxicity | –
COC(=O)N[C@H](C(=O)N1CCC[C@H]1c1nc(-c2ccc(-c3ccc(-c4c[nH]c([C@@H]5CCCN5C(=O)[C@@H](NC(=O)OC)C(C)C)n4)cc3)cc2)c[nH]1)C(C)C [Daclatasvir, daclatasvir] | did not | – | completely prevented | fully blocked HCV replication | had no effect | – | – | completely eradicated
